Test results taken from PMC10343472, “Cyclopentenylcytosine (CPE-C): In Vitro and In Vivo Evaluation as an Antiviral against Adenoviral Ocular Infections” (Molecules, 2023).
Read-outs that look alike come from different tables or passages of the source.

What was measured:
[1] = tested on: nine adenovirus types that commonly infect the eye; assay: plaque reduction assay, whole panel of ocular HAdV types; format: cell-based, Human adenovirus; settings: for range of mean EC50 concentrations across the HAdV serotypes tested: highest vs lowest mean EC50; for EC50: unidentified adenovirus
Experimental: (§1) The in vitro antiviral testing was done using a standard plaque reduction assay with A549 human lung carcinoma cells as previously described. The EC50s were determined using a Fitted Line Plot Regression analysis with Minitab Version 21 software. The EC50 is the effective concentration that inhibits plaque formation by 50%. The HAdV types tested represent the most common adenovirus serotypes that cause ocular infections (HAdV8, HAdV19/64, HAdV37 (EKC); HAdV3, HAdV4, HAdV7a (follicular conjunctivitis)) and serotypes that cause conjunctivitis and can replicate in the rabbit ocular model (HAdV1, HAdV2, HAdV5).
(§2) For the in vitro antiviral testing, clinical adenovirus isolates of types HAdV1, HAdV2, HAdV3, HAdV4, HAdV5, HAdV7a, HAdV8, and HAdV19/64 were anonymously collected from patients presenting with typical adenoviral conjunctivitis at the Charles T. Campbell Ophthalmic Microbiology Laboratory at the UPMC Eye Center, University of Pittsburgh, Pittsburgh, PA, USA. The isolates were retrieved from a frozen −80 °C retrospective clinical collection that was de-identified and stored for diagnostic test validations. The types of isolates were determined using serum neutralization. Recently, HAdV19 has been reclassified as HAdV64 [41]; however, for the purpose of this study, it was designated as HAdV19/64. No clinical isolates of HAdV37 were identified, therefore the ATCC (American Type Culture Collection, Manassas, VA, USA) reference strain of HAdV37 was used. The clinical isolates along with the ATCC HAdV37 reference strain were grown in A549 cell (CCL-185, ATCC) monolayers and stocks were prepared, aliquoted, and frozen at –80 °C. The titers of the stock viruses were determined as described in Section 4.7. The same clinical isolate of HAdV5 used for the in vitro antiviral testing was also used for the in vivo antiviral evaluation in the Ad5/NZW rabbit ocular replication model.
(§3) A549 human lung carcinoma cells were grown and maintained in Eagle’s MEM supplemented with 10% fetal bovine serum (Sigma Cell Culture Reagents, St. Louis, MO, USA). The A549 cell line was used to prepare the adenovirus stocks and for the determination of viral titers in the Ad5/NZW rabbit ocular replication model and in the in vitro plaque reduction assays.
Plaque reduction assays were performed 2–4 times using 24-well multiplates containing A549 monolayers. One plate per virus isolate per drug was used. The 24-well multiplates were inoculated with approximately 100 plaque-forming units (PFU) of HAdV per well. After a three-hour adsorption period, the inocula were removed from all wells. One ml of overlay media with 0.5% methylcellulose containing 100, 10, 1.0, 0.1, 0.01, or 0.001 μg/mL of CPE-C or cidofovir was added to 3 wells each. To the remaining 6 wells, 1 mL of overlay media with 0.5% methylcellulose and without CPE-C or cidofovir was added. The plates were incubated at 37 °C in 5% CO2 until plaque formation was visible. At that time, the cells were fixed and stained with 0.5% gentian violet containing formalin. The plates were dried, and the number of plaques per well was counted using a dissecting microscope. The CPE-C and cidofovir EC50 concentrations (concentrations that inhibits plaque formation by 50%) for each virus isolate were determined using a Fitted Line Plot Regression analysis (Minitab Version 21, State College, PA) of the average number of plaques versus drug concentration. The mean and standard deviation EC50 concentrations of 2–4 trials were then determined for each HAdV isolate. The EC50 concentrations in μg/mL were then converted to μM using the GraphPad online Molarity Calculator (https://www.graphpad.com/quickcalcs/Molarityform.cfm (accessed on 12 June 2023)).

HAdV4 = assay: plaque reduction assay in A549 cells, HAdV4; format: cell-based; settings: Human adenovirus sp.
Experimental: as §1, §2, §3
(§4) Plaque reduction assays were performed 2–4 times using 24-well multiplates containing A549 monolayers. One plate per virus isolate per drug was used. The 24-well multiplates were inoculated with approximately 100 plaque-forming units (PFU) of HAdV per well. After a three-hour adsorption period, the inocula were removed from all wells. […] The plates were dried, and the number of plaques per well was counted using a dissecting microscope. […] The mean and standard deviation EC50 concentrations of 2–4 trials were then determined for each HAdV isolate. […]

HAdV19/64 = assay: plaque reduction assay in A549 cells, HAdV19/64; format: cell-based; settings: Human adenovirus sp.
Experimental: as §1, §2, §3, §4

HAdV8 = assay: plaque reduction assay in A549 cells, HAdV8; format: cell-based; settings: Human adenovirus sp.
Experimental: as §1, §2, §3, §4

HAdV2 = assay: plaque reduction assay in A549 cells, HAdV2; format: cell-based; settings: Human adenovirus sp.
Experimental: as §1, §2, §3, §4

HAdV37 = assay: plaque reduction assay in A549 cells, HAdV37; format: cell-based; settings: Human adenovirus sp.
Experimental: as §1, §2, §3, §4

[2] = set-up: method as in PMID 11431446; settings: topical ocular; cited from earlier work
HAdV5 = assay: plaque reduction assay in A549 cells, HAdV5; format: cell-based; settings: Human adenovirus sp.
Experimental: as §1, §2, §3, §4

[3] = set-up: method as in PMID 7554044; settings: treatment of solid tumors; intravenous; cited from earlier work
[4] = A549, HAdV4, converted from μg/mL
[5] = HAdV4 clinical isolate, A549 cells, mean ± SD of 2–4 trials
[6] = A549, HAdV19/64, converted from μg/mL
[7] = HAdV19/64 clinical isolate, A549 cells, mean ± SD of 2–4 trials
[8] = A549, HAdV8, converted from μg/mL
[9] = HAdV8 clinical isolate, A549 cells, mean ± SD of 2–4 trials
[10] = A549, HAdV2, converted from μg/mL
[11] = HAdV2 clinical isolate, A549 cells, mean ± SD of 2–4 trials
[12] = A549, HAdV37, converted from μg/mL
[13] = HAdV37 ATCC reference strain, A549 cells, mean ± SD of 2–4 trials
[14] = A549, HAdV5, converted from μg/mL
[15] = HAdV5 clinical isolate, A549 cells, mean ± SD of 2–4 trials

SMILES | range of mean EC50 concentrations across the HAdV serotypes tested [1] | EC50 ([1]; read-out: EC50 concentrations for a majority of the HAdV serotypes, majority of the HAdV serotypes) | EC50 (HAdV4; [4]) | EC50 (HAdV4; [5]) | EC50 (HAdV19/64; [6]) | EC50 (HAdV19/64; [7]) | EC50 (HAdV8; [8]) | EC50 (HAdV8; [9]) | EC50 (HAdV2; [10]) | EC50 (HAdV2; [11]) | EC50 (HAdV37; [12]) | EC50 (HAdV37; [13]) | toxicity leading to discontinuation of development of topical cidofovir in the USA [2] | EC50 (HAdV5; [14]) | EC50 (HAdV5; [15]) | EC50 concentrations lower for CPE-C compared to cidofovir ([1]; majority of the HAdV types) | EC50s across the panel of HAdV types ([1]; nine adenovirus types that commonly infect the eye) | EC50 ([1]; read-out: EC50 concentrations across the panel of HAdV types, panel of HAdV types that commonly infect the eye) | EC50 ([1]; read-out: EC50s across the panel of HAdV types, nine adenovirus types that commonly infect the eye) | patient deaths during clinical trials [3]
Nc1ccn(C[C@@H](CO)OCP(=O)(O)O)c(=O)n1 [Cidofovir, cidofovir, reference compound] | 12.6 fold | ~5 µg/mL | 16.5 ± 3.31 µM | 4.61 ± 0.925 µg/mL | 17.5 ± 1.85 µM | 4.9 ± 0.517 µg/mL | 1.56 ± 0.592 µM | 0.427 ± 0.173 µg/mL | 18.3 ± 1.47 µM | 5.11 ± 0.41 µg/mL | 17.2 ± 2.43 µM | 4.79 ± 0.678 µg/mL | epiphora due to secondary lacrimal canalicular blockade | 17.6 ± 1.74 µM | 4.92 ± 0.486 µg/mL | – | – | – | – | –
Nc1ccn([C@@H]2C=C(CO)[C@@H](O)[C@H]2O)c(=O)n1 [CPE-C, Cyclopentenylcytosine] | 2 fold | – | 0.134 ± 0.11 µM | 0.032 ± 0.026 µg/mL | 0.196 ± 0.118 µM | 0.047 ± 0.028 µg/mL | 0.246 ± 0.076 µM | 0.059 ± 0.018 µg/mL | 0.198 ± 0.101 µM | 0.047 ± 0.024 µg/mL | 0.202 ± 0.037 µM | 0.048 ± 0.008 µg/mL | – | 0.126 ± 0.138 µM | 0.03 ± 0.033 µg/mL | approximately 100 fold | < 0.06 µg/mL | < 0.25 µM | 0.03 to 0.059 µg/mL | Two patient deaths from refractory hypotension
